Source: patent publication US20170217976A1, “6-(AMINO ACID)-MORPHINAN DERIVATIVES IN COMBINATION WITH PERMEATION […] FOR USE AS AN ORALLY, […], TRA[…] NASALLY AD[…]” (C[…], priority 2014, published 2017)
Like-named read-outs stand apart in the source and are kept apart here.

Assays:
MOR = target: T1, MOR (Rattus norvegicus, UniProt P33535); experiment: Opioid receptor binding, MOR, rat brain membranes
T1 construct: from tissue

DOR = target: T2, DOR (Rattus norvegicus, UniProt P33533); experiment: Opioid receptor binding, DOR, rat brain membranes
T2 construct: from tissue
T2 sequence (P33533 whole entry): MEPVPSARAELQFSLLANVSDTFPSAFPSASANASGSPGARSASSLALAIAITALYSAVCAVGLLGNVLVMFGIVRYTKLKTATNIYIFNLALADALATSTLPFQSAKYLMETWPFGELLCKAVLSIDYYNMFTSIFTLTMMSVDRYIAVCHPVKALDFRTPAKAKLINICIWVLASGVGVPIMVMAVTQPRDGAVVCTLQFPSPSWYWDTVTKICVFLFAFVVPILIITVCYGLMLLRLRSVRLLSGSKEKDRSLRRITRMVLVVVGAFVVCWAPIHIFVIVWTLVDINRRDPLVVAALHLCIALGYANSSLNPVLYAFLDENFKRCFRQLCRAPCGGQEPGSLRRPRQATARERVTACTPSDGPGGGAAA

KOR = target: T3, KOR (Cavia porcellus, UniProt P41144); experiment: Opioid receptor binding, KOR, guinea pig brain membranes
T3 construct: from tissue
T3 sequence (P41144 whole entry): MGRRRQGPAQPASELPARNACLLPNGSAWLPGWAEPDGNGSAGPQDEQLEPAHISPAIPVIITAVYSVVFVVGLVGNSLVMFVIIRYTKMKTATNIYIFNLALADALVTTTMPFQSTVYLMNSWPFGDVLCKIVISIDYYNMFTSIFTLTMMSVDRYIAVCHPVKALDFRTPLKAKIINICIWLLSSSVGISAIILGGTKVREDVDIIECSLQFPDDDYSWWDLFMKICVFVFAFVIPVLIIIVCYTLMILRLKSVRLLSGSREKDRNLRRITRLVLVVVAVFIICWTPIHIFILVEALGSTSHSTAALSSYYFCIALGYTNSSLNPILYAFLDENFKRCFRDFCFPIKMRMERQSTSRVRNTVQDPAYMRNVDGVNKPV

[1] = target: T4, human MOP expressed in CHO cells (Homo sapiens, UniProt P35372); experiment: [35S]GTPγS binding, antagonism at MOR (Ke against DAMGO); format: biochemical; conditions: for Kb: Table 1-6, antagonist Ke measured against DAMGO
T4 construct: expressed in transfected cells; host or cells: CHO cells (per the unit's head)
T4 sequence (P35372 whole entry): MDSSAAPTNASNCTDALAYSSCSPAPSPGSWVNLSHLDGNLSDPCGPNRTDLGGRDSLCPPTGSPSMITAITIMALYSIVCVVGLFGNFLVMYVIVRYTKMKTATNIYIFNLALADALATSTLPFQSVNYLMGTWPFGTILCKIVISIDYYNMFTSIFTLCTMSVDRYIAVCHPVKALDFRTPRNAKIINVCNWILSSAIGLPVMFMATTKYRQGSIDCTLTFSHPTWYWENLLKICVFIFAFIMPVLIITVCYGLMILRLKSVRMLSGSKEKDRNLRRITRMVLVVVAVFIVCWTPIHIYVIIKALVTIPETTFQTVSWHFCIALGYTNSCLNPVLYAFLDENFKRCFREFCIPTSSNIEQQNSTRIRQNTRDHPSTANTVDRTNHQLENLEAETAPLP

human MOR = target: T5, human MOR (Homo sapiens, UniProt P35372); experiment: biochemical; format: biochemical; conditions: for Emax: read-out: [35S]GTPγS binding, MOR % stim.
T5 construct: expressed in transfected cells; host or cells: CHO cells
T5 sequence (P35372 whole entry): as above
Procedure: A number of compounds were evaluated for agonist potency and efficacy at the MOR using the [^35S]GTPγS functional assay in CHO cells expressing human MOR receptors.

[2] = test system: mouse vas deferens preparation; experiment: Mouse vas deferens bioassay; conditions: read-out: IC50, agonist potency in mouse vas deferens
Procedure: The mouse vas deferens bioassay was performed as described in: M. Spetea et al., Eur. J. Pharmacol. 2004, 483, 301-308

[3] = pH-metric determination of pKa, logP and logD in octanol/water (PCA200/Cheqsol); format: physicochemical; conditions: octanol/water, 25° C.
Procedure: All titrations were performed in 0.15M KCl solution under argon gas. The pKa was determined by the shape of the titration curve and partition coefficients were determined by the shift in titration curve of pKa in the presence of octanol. The analysis of pH-metric data was performed by RefinementPro software (version 2.0, Sirius, Sussex, UK).

[4] = Binding Ki MOR, Table 1-6, rat brain membranes
[5] = Binding Ki MOR, Table 2-6, rat brain membranes
[6] = Binding Ki DOR, Table 1-6, rat brain membranes
[7] = Binding Ki DOR, Table 2-6, rat brain membranes
[8] = Binding Ki KOR, Table 1-6, guinea pig brain membranes
[9] = Binding Ki KOR, Table 2-6, guinea pig brain membranes
[10] = Table 1-4, human MOP expressed in CHO cells, read-out: [35S]GTPγS binding, MOR EC50
[11] = Table 1-4, measured against DAMGO
[12] = in vitro binding assay, rat brain membranes, read-out: Binding Ki (nM) MOR
[13] = in vitro binding assay, rat brain membranes, read-out: Binding Ki (nM) DOR
[14] = Binding Ki (nM) MOR, in vitro binding assay, rat brain membranes
[15] = Binding Ki MOR, Table 1-4, rat brain membranes
[16] = Binding Ki (nM) DOR, in vitro binding assay, rat brain membranes
[17] = Binding Ki DOR, Table 1-4, rat brain membranes
[18] = Binding Ki (nM) KOR, in vitro binding assay, guinea pig brain membranes
[19] = Binding Ki KOR, Table 1-4, guinea pig brain membranes
[20] = read-out: [35S]GTPγS binding, MOR Ke
[21] = in vitro binding assay, guinea pig brain membranes, read-out: Binding Ki (nM) KOR

T1 sequence (P33535 whole entry): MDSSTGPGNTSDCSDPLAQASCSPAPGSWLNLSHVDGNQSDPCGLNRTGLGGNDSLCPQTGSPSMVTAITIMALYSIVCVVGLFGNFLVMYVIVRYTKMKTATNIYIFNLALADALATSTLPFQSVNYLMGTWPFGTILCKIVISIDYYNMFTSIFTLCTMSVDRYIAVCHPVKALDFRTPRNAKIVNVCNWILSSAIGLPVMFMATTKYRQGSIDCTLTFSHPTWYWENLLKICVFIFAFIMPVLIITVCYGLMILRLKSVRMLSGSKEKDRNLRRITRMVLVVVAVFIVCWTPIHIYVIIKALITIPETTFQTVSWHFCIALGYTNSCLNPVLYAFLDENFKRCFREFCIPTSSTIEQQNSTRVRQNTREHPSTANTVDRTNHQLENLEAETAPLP

Row | Compound | Ki (MOR; [4]) | Ki (MOR; [5]) | Ki (DOR; [6]) | Ki (DOR; [7]) | Ki (KOR; [8]) | Ki (KOR; [9]) | EC50 [1] | Kb ([1]; [35S]GTPγS binding, MOR Ke) | further results
1 | O=C(O)C(Cc1ccccc1)NC1CCC2(O)C3Cc4ccc(O)c5c4C2(CCN3CC2CC2)C1O5 (single isomer, unassigned) [Compound 59] | 1.41 nM | 1.41 nM | 3.53 nM | 3.53 nM | 2.65 nM | 2.65 nM | > 10 µM | 0.25 nM | 
2 | O=C(O)C(Cc1ccccc1)NC1CCC2(O)C3Cc4ccc(O)c5c4C2(CCN3CC2CC2)C1O5 (single isomer, unassigned) [Compound 60] | 1.83 nM | 1.83 nM | 2.79 nM | 2.79 nM | 8.99 nM | 8.99 nM |  | 0.24 nM | EC50 ([1]; read-out: [35S]GTPγS binding, MOR EC50, Table 1-6, stimulation of [35S]GTPγS binding): > 10 µM
3 | CO[C@@]12CC[C@H](N[C@@H](Cc3ccccc3)C(=O)O)[C@@H]3Oc4c(O)ccc5c4[C@@]31CCN(C)[C@@H]2C5 [Compound 3] |  |  |  |  |  |  |  |  | EC50 (human MOR; [10]): 0.03 nM; Emax (human MOR; [11]): 116%
4 | CCO[C@@]12CCC(=O)[C@@H]3Oc4c(O)ccc5c4[C@@]31CCN(CC1CC1)[C@@H]2C5 [Compound 14-OEt-NTX, 14-O-Ethylnaltrexone, reference compound] | 0.35 nM | 0.35 nM | 4.13 nM | 4.13 nM | 0.93 nM | 0.93 nM | > 10 µM | 0.31 nM | 
5 | CO[C@@]12CCC(=O)[C@@H]3Oc4c(O)ccc5c4[C@@]31CCN(C)[C@@H]2C5 [Compound 14-OMO, 14-O-methyloxymorphone, reference compound] |  |  |  |  |  |  |  |  | Ki (MOR; Table 1-4, rat brain membranes, read-out: Binding Ki MOR): 0.1 nM; Ki (MOR; [12]): 0.1 nM; Ki (DOR; Table 1-4, rat brain membranes, read-out: Binding Ki DOR): 4.8 nM; Ki (DOR; [13]): 4.8 nM; EC50 (human MOR; [10]): 1.17 nM; [35S]GTPγS binding, MOR % stim. (human MOR; [11]): 127%; IC50 [2]: 7.76 nM
6 | CO[C@@]12CCC(=O)[C@@H]3Oc4c(O)ccc5c4[C@@]31CCN(CC1CC1)[C@@H]2C5 [Compound 14-OMe-NTX, 14-O-Methylnaltrexone, reference compound] | 0.46 nM | 0.46 nM | 7.88 nM | 7.88 nM | 1.17 nM | 1.17 nM | > 10 µM | 0.49 nM | 
7 | CO[C@@]12CC[C@H](NCCCC(=O)O)[C@@H]3Oc4c(O)ccc5c4[C@@]31CCN(C)[C@@H]2C5 [Compound 15] |  |  |  |  |  |  |  |  | EC50 (human MOR): 1.9 nM; Emax (human MOR): 113%; logP [3]: -0.36
8 | CO[C@@]12CC[C@H](N[C@@H](CCC(=O)O)C(=O)O)[C@@H]3Oc4c(O)ccc5c4[C@@]31CCN(C)[C@@H]2C5 [Compound 19] |  |  |  |  |  |  |  |  | EC50 (human MOR; [10]): 1.61 nM
9 | CO[C@@]12CC[C@H](N[C@@H](CC(N)=O)C(=O)O)[C@@H]3Oc4c(O)ccc5c4[C@@]31CCN(C)[C@@H]2C5 [Compound 26] |  |  |  |  |  |  |  |  | Ki (MOR; [14]): 1.17 nM; Ki (MOR; [15]): 1.17 nM; Ki (DOR; [16]): 3.37 nM; Ki (DOR; [17]): 3.37 nM; Ki (KOR; [18]): 74 nM; Ki (KOR; [19]): 74 nM; EC50 (human MOR; [10]): 0.64 nM; Emax (human MOR; [11]): 109%
10 | CO[C@@]12CC[C@@H](N[C@H](C(=O)O)[C@@H](C)O)[C@@H]3Oc4c(O)ccc5c4[C@@]31CCN(C)[C@@H]2C5 [Compound 35] |  |  |  |  |  |  |  |  | Ki (MOR; [14]): 0.79 nM; Ki (MOR; [15]): 0.79 nM; Ki (DOR; [16]): 5.16 nM; Ki (DOR; [17]): 5.16 nM; Ki (KOR; [18]): 58.6 nM; Ki (KOR; [19]): 58.6 nM; logP [3]: -1.38
11 | CO[C@@]12CC[C@H](N[C@@H](CO)C(=O)O)[C@@H]3Oc4c(O)ccc5c4[C@@]31CCN(C)[C@@H]2C5 [Compound 36] |  |  |  |  |  |  |  |  | Ki (MOR; [14]): 2.21 nM; Ki (MOR; [15]): 2.21 nM; Ki (DOR; [16]): 5.32 nM; Ki (DOR; [17]): 5.32 nM; Ki (KOR; [18]): 196 nM; Ki (KOR; [19]): 196 nM; EC50 (human MOR): 1.21 nM; Emax (human MOR): 96%
12 | CO[C@@]12CC[C@@H](N[C@@H](CO)C(=O)O)[C@@H]3Oc4c(O)ccc5c4[C@@]31CCN(C)[C@@H]2C5 [Compound 37] |  |  |  |  |  |  |  |  | Ki (MOR; [14]): 2.14 nM; Ki (MOR; [15]): 2.14 nM; Ki (DOR; [16]): 5.29 nM; Ki (DOR; [17]): 5.29 nM; Ki (KOR; [18]): 152 nM; Ki (KOR; [19]): 152 nM; EC50 (human MOR; [10]): 3.24 nM
13 | CO[C@@]12CC[C@H](N[C@@H](CCCCN)C(=O)O)[C@@H]3Oc4c(O)ccc5c4[C@@]31CCN(C)[C@@H]2C5 [Compound 38] |  |  |  |  |  |  |  |  | Ki (MOR; [14]): 0.19 nM; Ki (MOR; [15]): 0.19 nM; Ki (DOR; [16]): 1.27 nM; Ki (DOR; [17]): 1.27 nM; Ki (KOR; [18]): 12.6 nM; Ki (KOR; [19]): 12.6 nM; logP [3]: -0.66
14 | CO[C@@]12CC[C@@H](N[C@@H](CC(=O)O)C(=O)O)[C@@H]3Oc4c(O)ccc5c4[C@@]31CCN(C)[C@@H]2C5 [Compound 45] |  |  |  |  |  |  |  |  | logP [3]: -2.2
15 | CO[C@@]12CC[C@@H](N[C@@H](Cc3c[nH]c4ccccc34)C(=O)O)[C@@H]3Oc4c(O)ccc5c4[C@@]31CCN(C)[C@@H]2C5 [Compound 46] |  |  |  |  |  |  |  |  | Ki (MOR; [14]): 0.65 nM; Ki (MOR; [15]): 0.65 nM; Ki (DOR; [16]): 1.19 nM; Ki (DOR; [17]): 1.19 nM; Ki (KOR; [18]): 8.66 nM; Ki (KOR; [19]): 8.66 nM; EC50 (human MOR; [10]): 0.61 nM; Emax (human MOR; [11]): 112%
16 | CO[C@@]12CC[C@H](NCC(=O)O)[C@@H]3Oc4c(O)ccc5c4[C@@]31CCN(CC1CC1)[C@@H]2C5 [Compound 61] | 0.68 nM | 0.68 nM | 5.15 nM | 5.15 nM | 4.65 nM | 4.65 nM | > 10 µM | 0.63 nM | 
17 | CO[C@@]12CC[C@@H](NCC(=O)O)[C@@H]3Oc4c(O)ccc5c4[C@@]31CCN(CC1CC1)[C@@H]2C5 [Compound 62] | 1.31 nM | 1.31 nM | 4.76 nM | 4.76 nM | 9.31 nM | 9.31 nM | > 10 µM | 0.19 nM | 
18 | CO[C@@]12CC[C@H](NCCC(=O)O)[C@@H]3Oc4c(O)ccc5c4[C@@]31CCN(CC1CC1)[C@@H]2C5 [Compound 63] | 1.35 nM | 1.35 nM | 6.25 nM | 6.25 nM | 7.81 nM | 7.81 nM | > 10 µM | 0.27 nM | 
19 | CO[C@@]12CC[C@@H](NCCC(=O)O)[C@@H]3Oc4c(O)ccc5c4[C@@]31CCN(CC1CC1)[C@@H]2C5 [Compound 64] | 1.51 nM | 1.51 nM | 8.12 nM | 8.12 nM | 11.7 nM | 11.7 nM | > 10 µM | 0.96 nM | 
20 | CO[C@@]12CC[C@H](NCCCC(=O)O)[C@@H]3Oc4c(O)ccc5c4[C@@]31CCN(CC1CC1)[C@@H]2C5 [Compound 65] | 1.21 nM | 1.21 nM | 10.7 nM | 10.7 nM | 5.31 nM | 5.31 nM | > 10 µM |  | Kb [1, 20]: 0.94 nM
21 | CO[C@@]12CC[C@@H](NCCCC(=O)O)[C@@H]3Oc4c(O)ccc5c4[C@@]31CCN(CC1CC1)[C@@H]2C5 [Compound 66] | 3.36 nM | 3.36 nM | 10.2 nM | 10.2 nM | 16.8 nM | 16.8 nM | > 10 µM |  | Kb [1, 20]: 1.06 nM
22 | C[C@@H](NC(=O)[C@@H](N)Cc1ccc(O)cc1)C(=O)NCC(=O)N(C)[C@@H](Cc1ccccc1)C(=O)NCCO [DAMGO, reference compound] |  |  |  |  |  |  |  |  | IC50 [2]: 76.6 nM
23 | CCCCCCCCOC(=O)CN[C@@H]1CC[C@@]2(OC)[C@H]3Cc4ccc(O)c5c4[C@@]2(CCN3C)[C@H]1O5 [HS731-nOc ester] |  |  |  |  |  |  |  |  | Ki (MOR; [12]): 2.56 nM; Ki (DOR; [13]): 2.71 nM; Ki (KOR; [21]): 3.87 nM
24 | CO[C@@]12CC[C@@H](NCC(=O)OC(C)(C)C)[C@@H]3Oc4c(O)ccc5c4[C@@]31CCN(C)[C@@H]2C5 [HS731-t-Bu ester] |  |  |  |  |  |  |  |  | Ki (MOR; [14]): 1.3 nM; Ki (DOR; [13]): 0.68 nM; Ki (KOR; [21]): 56.2 nM
